Experimental data from US20060281807A1, “Quassinoid compositions for the treatment of cancer and other proliferative diseases” (Tapestry Pharmaceuticals, Inc., priority 2005, published 2006).
“And” between values parts separate entries of the source, which are not always exact repeats. Equal values may be shown once.

What was measured:
SK-N-AS = assay: MTT cytotoxicity assay (% kill), SK-N-AS; type: cell-based, human; conditions: 1 h exposure, MTT after five days
Procedure, shortened: (§1)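 Cells grown in 10% FBS Eagles MEM at 37 °C, 5% CO2, sextuplicate wells, exposed to compound at 0.1 or 1.0 μg/mL for 1 h or 24 h. After rinsing, they were cultured 5 more days. Viable cells then measured by MTT, expressed as % kill.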

LS-174T = assay: MTT cytotoxicity assay (% kill), LS-174T; type: cell-based, human; conditions: 1 h exposure, MTT after five days
Procedure, shortened: as §1

WiDr = assay: MTT cytotoxicity assay (% kill), WiDr; type: cell-based, human; conditions: 0.1 μg/mL, 1 h exposure
Procedure: (§2) The following human tumor cell lines were obtained and cultured in sextuplicate microwells at 37° C. and 5% CO2 in humidified air and in 10% FBS in Eagles MEM: SK—N—FI, SK—N-AS, LS-174T, WiDr, HuTu-80, MCF7, NCI-AR, MES-Sar, and PL-45. Cells from each cell line were separately treated with an amount of one of the compounds of Formula I, II, or III (see Table 1). Cells were exposed to each compound (0.1 μg/mL or 1.0 μg/mL) for one hour or 24 hours, rinsed with drug-free media, and incubated for an additional five days. The number of viable cells after five days was measured using an MTT (3-(4,5-dimethylthiazol-2-yl)-2,5-diphenyltetrazolium bromide) assay (see, e.g., Mosmann, J. Immunol. Methods, 65(1-2), 55-63 (1983)).
(§3) The cytotoxicity of each drug was determined and expressed as the percent of cells killed (“% kill”).

HuTu-80 = assay: MTT cytotoxicity assay (% kill), HuTu-80; type: cell-based, human; conditions: 1 h exposure
Procedure: as §2, §3

MCF7 = assay: MTT cytotoxicity assay (% kill), MCF7; type: cell-based, human; conditions: 1 h exposure
Procedure: as §2, §3

NCI-AR = assay: MTT cytotoxicity assay (% kill), NCI-AR; type: cell-based, human; conditions: 1 h exposure
Procedure: as §2, §3

MES-Sar = assay: MTT cytotoxicity assay (% kill), MES-Sar; type: cell-based, human; conditions: 1 h exposure
Procedure: as §2, §3

PL-45 = assay: MTT cytotoxicity assay (% kill), PL-45; type: cell-based, human; conditions: 1 h exposure
Procedure: as §2, §3

L1210 (murine leukemia) = assay: Disk diffusion assay, zone of inhibition, L1210; type: cell-based; conditions: 1 mg/mL
[1] = system: HCT116 (human colorectal carcinoma); assay: Disk diffusion assay, zone of inhibition, HCT116; type: cell-based; conditions: 1 mg/mL
murine CFU-GM = assay: Disk diffusion assay, zone of inhibition, murine CFU-GM; type: cell-based; conditions: 1 mg/mL
[2] = no dilution, 15 μl on disk, 6.5 mm = 200 units

## COC(=O)[C@@]12OC[C@@]34C1[C@@H](OC(=O)CC(O)(C(C)C)C(C)C)C(=O)O[C@@H]3C[C@H]1C(C)=C(O)C(=O)C[C@]1(C)[C@H]4[C@@H](O)[C@@H]2O (stereo partly shown) [15-O-(3′-hydroxy-3′-isopropyl-4′-methylpentanoyl)bruceolide]
SK-N-AS; 0.1 μg/mL
  % Kill, SK-N-AS: 0%
SK-N-AS; 1.0 μg/mL
  % Kill, SK-N-AS: 3%
LS-174T; 0.1 μg/mL
  % Kill, LS-174T: 0%
LS-174T; 1.0 μg/mL
  % Kill, LS-174T: 13%
WiDr
  % kill, WiDr: 0%
HuTu-80; 0.1 μg/mL
  % kill, HuTu-80: 0%
HuTu-80; 1.0 μg/mL
  % kill, HuTu-80: 7%
MCF7; 0.1 μg/mL
  % kill, MCF7: 12%
MCF7; 1.0 μg/mL
  % kill, MCF7: 31%
NCI-AR; 0.1 μg/mL
  % kill, NCI-AR: 0%
NCI-AR; 1.0 μg/mL
  % kill, NCI-AR: 0%
MES-Sar; 0.1 μg/mL
  % kill, MES Sar: 0%
MES-Sar; 1.0 μg/mL
  % kill, MES Sar: 0%
PL-45; 0.1 μg/mL
  % kill, PL-45: 0%
PL-45; 1.0 μg/mL
  % kill, PL-45: 0%
L1210 (murine leukemia); dilution 1/10
  zone of inhibition, L1210: 550 units
L1210 (murine leukemia); dilution 1/100
  zone of inhibition, L1210: 200 units
L1210 (murine leukemia); dilution 1/400
  zone of inhibition, L1210: 0 units
L1210 (murine leukemia); [2]
  zone of inhibition, L1210: 1000 units
[1]; dilution 1/10
  zone of inhibition, H-116: 1000 units and 900 units
[1]; dilution 1/1000
  zone of inhibition, H-116: 0 units
[1]; [2]
  zone of inhibition, H-116: >1000 units
Murine CFU-GM; dilution 1/10
  zone of inhibition, murine CFU-GM: 50 units
Murine CFU-GM; dilution 1/100
  zone of inhibition, murine CFU-GM: 300 units and 200 units
Murine CFU-GM; dilution 1/400
  zone of inhibition, murine CFU-GM: 100 units
Murine CFU-GM; dilution 1/1000
  zone of inhibition, murine CFU-GM: 0 units

## COC(=O)[C@@]12OC[C@@]34C1[C@@H](OC(=O)C=C(C(C)C)C(C)C)C(=O)O[C@@H]3C[C@H]1C(C)=C(O)C(=O)C[C@]1(C)[C@H]4[C@@H](O)[C@@H]2O (stereo partly shown) [15-O-(3′-isopropyl-4′-methyl-2′-pentenoyl)-bruceolide]
L1210 (murine leukemia); dilution 1/10
  zone of inhibition, L1210: 1000 units
L1210 (murine leukemia); dilution 1/100
  zone of inhibition, L1210: 650 units and 600 units
L1210 (murine leukemia); dilution 1/1000
  zone of inhibition, L1210: 150 units
L1210 (murine leukemia); [2]
  zone of inhibition, L1210: >1000 units
[1]; dilution 1/10
  zone of inhibition, H-116: 750 units
[1]; dilution 1/100
  zone of inhibition, H-116: 100 units
[1]; dilution 1/1000
  zone of inhibition, H-116: 0 units
[1]; [2]
  zone of inhibition, H-116: >1000 units
Murine CFU-GM; dilution 1/10
  zone of inhibition, murine CFU-GM: 650 units
Murine CFU-GM; dilution 1/100
  zone of inhibition, murine CFU-GM: 350 units and 600 units
Murine CFU-GM; dilution 1/1000
  zone of inhibition, murine CFU-GM: 0 units
